Laboratory results taken from ChEMBL document CHEMBL1126200, “Design and synthesis of novel FKBP inhibitors” (J Med Chem, 1992).
pIC50: −log10 of the molar value. Non-standard residues stand in square brackets, D forms with d. Residues, ends and D or L forms follow the SMILES beside them. *: point of attachment. Pip = O=C(O)[C@@H]1CCCCN1; Cbz = O=C(OCc1ccccc1)*

Assay: The compound was tested for the inhibitory activity of FK506 binding protein
Design: species or system Homo sapiens

| pIC50 | SMILES |
| --- | --- |
| 4.09 | COc1cccc(C(=O)CN2CCCC[C@H]2C(=O)N[C@H](Cc2ccccc2)C(=O)OC(C)(C)C)c1 |
| < 4.00 | COc1cccc(C(=O)CN2CCCC[C@H]2C(=O)N[C@@H](CCC2CCCCC2)C(=O)OC(C)C)c1 |
| < 4.00 | C[C@@H](/C=C/c1ccc(C(=O)C(=O)N2CCCC2C(=O)NC(Cc2ccccc2)C(=O)OC(C)(C)C)s1)CO[Si](C)(C)C(C)(C)C (stereo not given in full) |
| 6.00 | COC(=O)[C@H](Cc1ccccc1)NC(=O)[C@@H](NC(=O)[C@H](Cc1ccccc1)NC(=O)[C@@H]1CCCCN1CC(=O)c1cccc(OC)c1)C(C)C |
| 4.74 | CC(=O)OC/C=C/[C@@H](NC(=O)[C@H](Cc1ccccc1)NC(=O)[C@@H]1CCCCN1CC(=O)c1ccc2ccccc2c1)C(C)C |
| 5.70 | COc1cccc(C(=O)CN2CCCC[C@H]2C(=O)N[C@@H](Cc2ccccc2)C(=O)N[C@H](/C=C/I)C(C)C)c1 |
| 5.70 | COc1cccc(C(=O)CN2CCCC[C@H]2C(=O)N[C@@H](Cc2ccccc2)C(=O)N[C@H](/C=C/COC(C)=O)C(C)C)c1 |
| 5.00 | COc1cccc(C(=O)CN2CCCC[C@H]2C(=O)N[C@@H](Cc2ccccc2)C(=O)N[C@H](/C=C/[C@@H](C)CC(C)=O)C(C)C)c1 |
| 6.52 | COC(=O)[C@H](Cc1ccccc1)NC(=O)[C@@H](NC(=O)[C@H](Cc1ccccc1)NC(=O)[C@@H]1CCCCN1CC(=O)c1ccc2ccccc2c1)C(C)C |
| 4.59 | COC(=O)[C@H](Cc1ccccc1)NC(=O)[C@@H](NC(=O)[C@H](Cc1ccccc1)NC(=O)[C@@H]1CCCCN1CC(=O)c1ccc(-c2ccccc2)cc1)C(C)C |
| 4.92 | C=CCCC(NC(=O)[C@H](Cc1ccccc1)NC(=O)[C@@H]1CCCCN1CC(=O)c1cccc(OC)c1)C(=O)OC(C)(C)C (stereo not given in full) |
| 4.40 | COc1cccc(C(=O)CN2CCCC[C@H]2C(=O)N[C@@H](Cc2ccccc2)C(=O)N[C@H](/C=C/C(=O)N[C@@H](C)c2ccccc2)C(C)C)c1 |
| 4.85 | COc1cccc(C(=O)CN2CCCC[C@H]2C(=O)N[C@@H](Cc2ccccc2)C(=O)N[C@H](C(=O)Cc2ccccc2)C(C)C)c1 |
| 4.40 | COc1cccc(C(=O)CN2CCCC[C@H]2C(=O)N[C@@H](Cc2ccccc2)C(=O)NC(Cc2ccccc2)C(=O)OC(C)(C)C)c1 (stereo not given in full) |
| 4.57 | COc1cccc(C(=O)CN2CCCC[C@H]2C(=O)N[C@@H](Cc2ccc([N+](=O)[O-])cc2)C(=O)OC(C)(C)C)c1 |
| < 4.00 | CC(C)(C)OC(=O)N[C@@H](CC1CCCCC1)C(=O)CN1CCCC1C(=O)NC(Cc1ccccc1)C(=O)OC(C)(C)C (stereo not given in full) |

| pIC50 | SMILES |
| --- | --- |
| 5.52 | COc1cccc(C(=O)CN2CCCC[C@H]2C(=O)N[C@@H](Cc2ccccc2)C(=O)NC(C(=O)OC(C)(C)C)C(C)C)c1 (stereo not given in full) |
| 6.00 | COc1cccc(C(=O)CN2CCCC[C@H]2C(=O)N[C@@H](Cc2ccccc2)C(=O)N[C@H](/C=C/COC(=O)C(F)(F)F)C(C)C)c1 |
| 4.52 | COc1cccc(C(=O)CN2CCCC[C@H]2C(=O)N[C@@H](Cc2ccccc2)C(=O)N[C@H](C(=O)N[C@@H](Cc2ccccc2)C(=O)N[C@H](C)c2cccc3ccccc23)C(C)C)c1 |
| 4.64 | COc1cccc(C(=O)CN2CCCC[C@H]2C(=O)N[C@H](C(=O)OC(C)(C)C)c2cccs2)c1 |
| 4.08 | COc1cccc(C(=O)CN2CCCC[C@H]2C(=O)N[C@H](C(=O)OC(C)(C)C)C(C)C)c1 |
| 4.92 | COc1cccc(C(=O)CN2CCCC2C(=O)NC(Cc2ccccc2)C(=O)OC(C)(C)C)c1 (stereo not given) |
| 4.15 | COc1cccc(C(=O)CN2CCCC[C@H]2C(=O)N[C@@H](Cc2ccccc2)C(=O)NC(CC2CCCCC2)C(=O)OC(C)(C)C)c1 (stereo not given in full) |
| < 4.00 | COC(=O)[C@H](Cc1ccccc1)NC(=O)[C@@H](NC(=O)[C@H](Cc1ccccc1)NC(=O)[C@@H]1CCCCN1)C(C)C (H-[Pip]FVF-OMe) |
| < 4.00 | COc1cccc(C(=O)CN2CCCC[C@H]2C(=O)N[C@@H](Cc2ccccc2)C(=O)NC(CCCCNC(=O)OCc2ccccc2)C(=O)OCc2ccccc2)c1 (stereo not given in full) |
| < 4.00 | COc1cccc(C(=O)CN2CCCC[C@H]2C(=O)N[C@@H](CCc2ccccc2)C(=O)OC(C)C)c1 |
| 4.96 | COc1cccc(C(=O)CN2CCCC[C@H]2C(=O)N[C@@H](Cc2ccccc2)C(=O)N[C@H](/C=C/C2CCC(=O)C2)C(C)C)c1 (stereo not given in full) |
| 5.52 | C=CCOC/C=C/[C@@H](NC(=O)[C@H](Cc1ccccc1)NC(=O)[C@@H]1CCCCN1CC(=O)c1cccc(OC)c1)C(C)C |
| 4.22 | C[C@@H](/C=C/c1ccc(C(=O)CN2CCCC2C(=O)NC(Cc2ccccc2)C(=O)OC(C)(C)C)s1)CO[Si](C)(C)C(C)(C)C (stereo not given in full) |
| 4.46 | CC(C)(C)OC(=O)C(CC1CCCCC1)NC(=O)[C@H](Cc1ccccc1)NC(=O)[C@@H]1CCCCN1CC(=O)c1ccc2ccccc2c1 (stereo not given in full) |
| 4.64 | COc1cccc(C(=O)CN2CCCC[C@H]2C(=O)N[C@@H](Cc2ccccc2)C(=O)N[C@H](C(=O)N[C@@H](Cc2ccccc2)C(=O)O[C@H](C)c2ccccc2)C(C)C)c1 |

Second part, the compound before the results:

| SMILES | pIC50 |
| --- | --- |
| CCC(C)C(NC(=O)[C@H](Cc1ccccc1)NC(=O)[C@@H]1CCCCN1CC(=O)c1cccc(OC)c1)C(=O)OC(C)(C)C (stereo not given in full) | 5.22 |
| COc1cccc(C(=O)CN2CCCC[C@H]2C(=O)N[C@@H](CC2CCCCC2)C(=O)OC(C)(C)C)c1 | 4.04 |
| COC(=O)[C@H](Cc1ccccc1)NC(=O)[C@@H](NC(=O)[C@H](Cc1ccccc1)NC(=O)[C@@H]1CCCCN1C(=O)OCc1ccccc1)C(C)C (Cbz-[Pip]FVF-OMe) | < 4.00 |
| CC(C)[C@H](NC(=O)[C@H](Cc1ccccc1)NC(=O)[C@@H]1CCCCN1CC(=O)c1ccc2ccccc2c1)C(=O)N[C@@H](Cc1ccccc1)C(=O)OC(C)(C)C | 4.89 |
| C[C@@H](/C=C/c1ccc(C(=O)C(=O)N2CCCC2C(=O)NC(Cc2ccccc2)C(=O)OC(C)(C)C)s1)CO (stereo not given in full) | 3.92 |
| COc1cccc(C(=O)CN2CCCC[C@H]2C(=O)N[C@@H](Cc2ccccc2)C(=O)N[C@H](C(=O)N[C@@H](Cc2ccccc2)C(=O)N[C@@H](C)c2ccccc2)C(C)C)c1 | 4.23 |
| COc1cccc(C(=O)CN2CCCC[C@H]2C(=O)N[C@@H](Cc2ccccc2)C(=O)N[C@H](C(=O)N[C@@H](Cc2ccccc2)C(=O)N[C@H](C)c2ccccc2)C(C)C)c1 | 4.07 |
| COc1cccc(C(=O)CN2CCCC[C@H]2C(=O)N[C@@H](Cc2ccccc2)C(=O)N[C@H](/C=C/C2CCCC(=O)O2)C(C)C)c1 (stereo not given in full) | 4.38 |
| COC1CCCC(C(=O)CN2CCCC2C(=O)NC(Cc2ccccc2)C(=O)OC(C)(C)C)C1 (stereo not given) | < 4.00 |
| CC(C)[C@@H](/C=C/C(=O)N[C@@H](C)c1ccccc1)NC(=O)[C@H](Cc1ccccc1)NC(=O)[C@@H]1CCCCN1CC(=O)c1ccc2ccccc2c1 | 4.46 |
| C[C@@H](/C=C/c1ccc(C(=O)C(=O)N2CCCC[C@H]2C(=O)NC(Cc2ccccc2)C(=O)OC(C)(C)C)s1)CO (stereo not given in full) | 5.05 |
| COc1cccc(C(=O)CN2CCCC[C@H]2C(=O)N[C@@H](Cc2ccccc2)C(=O)N[C@H](C(=O)N[C@@H](Cc2ccccc2)C(=O)OC(C)(C)C)C(C)C)c1 | 4.70 |
| CC(C)C(NC(=O)[C@H](Cc1ccccc1)NC(=O)[C@@H]1CCCCN1CC(=O)c1ccc2ccccc2c1)C(=O)OC(C)(C)C (stereo not given in full) | 6.00 |
| CCOC(=O)/C=C/[C@@H](NC(=O)[C@H](Cc1ccccc1)NC(=O)[C@@H]1CCCCN1CC(=O)c1cccc(OC)c1)C(C)C | 4.82 |
| COc1cccc(C(=O)CN2CCCC[C@H]2C(=O)N[C@@H](Cc2ccccc2)C(=O)N[C@H](/C=C/COC(=O)c2ccccc2)C(C)C)c1 | 4.21 |
| CC(C)[C@H](NC(=O)[C@H](Cc1ccccc1)NC(=O)[C@@H]1CCCCN1CC(=O)c1ccc2ccccc2c1)C(=O)N[C@@H](Cc1ccccc1)C(=O)N[C@H](C)c1cccc2ccccc12 | 4.12 |
| COc1cccc(C(=O)CN2CCCC[C@H]2C(=O)N[C@@H](Cc2ccccc2)C(=O)N[C@H](C(=O)N[C@@H](Cc2ccccc2)C(=O)O[C@@H](C)c2ccccc2)C(C)C)c1 | 4.25 |
| CCC(C)[C@H](NC(=O)[C@@H]1CCCCN1CC(=O)c1cccc(OC)c1)C(=O)OC(C)(C)C (stereo not given in full) | 5.10 |
| COc1cccc(C(=O)CN2CCCC[C@H]2C(=O)N[C@H](C(=O)OC(C)(C)C)c2ccsc2)c1 | 4.66 |
| COc1cccc(C(=O)CN2CCCC[C@H]2C(=O)N[C@@H](Cc2ccccc2)C(=O)OC(C)(C)C)c1 | 5.52 |
| C[C@@H](/C=C/c1ccc(C(=O)C(=O)N2CCCC2C(=O)OC(C)(C)C)s1)CO[Si](C)(C)C(C)(C)C (stereo not given in full) | < 4.00 |
| CC(C)[C@H](NC(=O)[C@H](Cc1ccccc1)NC(=O)[C@@H]1CCCCN1CC(=O)c1ccc2ccccc2c1)C(=O)N[C@@H](Cc1ccccc1)C(=O)N[C@H](C)c1ccccc1 | 4.19 |
| COc1cccc(C(=O)CN2CCCC[C@H]2C(=O)N[C@@H](Cc2ccccc2)C(=O)NC(CC(C)C)C(=O)OC(C)(C)C)c1 (stereo not given in full) | 5.52 |
| C[C@@H](/C=C/c1ccc(C(=O)C(=O)N2CCCC2C(=O)OC(C)(C)C)s1)CO (stereo not given in full) | < 4.00 |
